{"source": "patent US11679100B2", "about": "“Methods of enhancing immunity” (The Regents of the University of California, priority 2018, dated 2023)", "key": {"[1]": {"system": "LLC lung tumor", "test": "LA1 treatment of subcutaneous LLC tumors", "format": "in vivo, mice", "description": "LA1 treatment of LLC: 7.5×10^5 LLC cells were injected subcutaneously (s.c.) into the right flank of syngeneic 6- to 8-week old WT or CD11b^−/− mice. At 5-8 days post tumor inoculation, tumor-bearing mice were divided into the following treatment groups: Vehicle (6% DMSO, 1% Tween-20 in saline), LA1 (6 mg/kg dissolved in vehicle). Vehicle and LA1 was administered by intraperitoneal injection (i.p.) daily. Tumor burden was evaluated 2-3 times a week by caliper measurements and tumor volumes were calculated using the equation (l^2×w)/2. Tumors were harvested at 3 weeks post-tumor inoculation, formalin fixed, cryopreserved in OCT, or collagenase-digested for flow cytometric analysis.\n(§1) Immunohistochemistry—Tumor samples were collected and cryopreserved in O.C.T. Sections (5 μm) were fixed in 100% cold acetone, blocked with 8% normal goat serum for 2 hours, and incubated with primary antibodies at […] for 2 hours at room temperature. Sections were washed 3 times with PBS and incubated with fluorescent secondary antibodies. Primary antibodies where: F4/80 (BM8, eBioscience), CD4 (H129.19, BD Bioscience), CD8 (53-6.7, BD Bioscience), CD31 (MEC13.1, BD Bioscience), desmin (RB0914-P1, LabVision, Thermo Scientific), and anti-smooth muscle actin (SMA) (1A4, Sigma-Aldrich). Slides were counterstained with 4′,6-diamidino-2-phenylindole (DAPI) to identify nuclei. Immunofluorescence images were collected on a Nikon microscope (Eclipse TE2000-U) and analyzed using Metamorph image capture and analysis software (Version 6.3r5, Molecular Devices). Pixels/field or cell number/field were quantified in five 100× fields from 5 biological replicates. For LA1 studies, immunohistochemical staining was quantified by counting marker positive cells in 3 different areas analyzed at 40× using a light microscope for each tumor tissue (n=4−6). Tissues that were stained with fluorochrome conjugated secondary antibodies were counter stained with DAPI and analyzed using the Zeiss 700 LSM confocal microscope and Zen software (Carl Zeiss Group, Hartford, Conn.).\nAlternatively, immunostaining was performed on formalin fixed, paraffin-embedded tumor tissues. Deparaffinized tissue sections (5 μm) were either stained with hemotoxylin-eosin or were subjected to antigen retrieval by steam heating in an acidic pH solution (Citrate-based, Vector Laboratories) prior to immune staining for α-SMA (clone 1A4, Fisher Scientific), MMP9 (polyclonal rabbit, Abcam), S100A8 (goat polyclonal (M-19), Santa Cruz), CD31 (clone RM0032-1D12, Abcam), or ARG1 (sc-18351, Santa Cruz) at 4° C. overnight. Sections were washed and incubated with the appropriate fluorochrome conjugated secondary antibody (Invitrogen Life Technologies, Grand Island, N.Y.) or biotinylated secondary antibodies diluted in blocking buffer for 1 hr. at RT. For sections that were stained with biotinylated secondary antibodies, signal development was accomplished by using the DAB Substrate Kit (Vector Laboratories).\nFlow Cytometry Staining and Analysis—Single cell suspensions (10^6 cells in 100 μL total volume) were incubated with Aqua Live Dead fixable stain (Life Technologies, Carlsbad, Calif.), FcR-blocking reagent (BD Biosciences, San Jose, Calif.) and fluorescently labeled antibodies and incubated at 4° C. for 1 h. Primary antibodies were: BV605-F4/80 (clone BM8, Biolegend #123133, 1.25 μg/ml), Alexa 700-CD45 (clone 30-F11, eBioscience #56-0451, ×0.6 μg/ml), CD11b-APC (clone M1/70, eBioscience #17-0012, 0.3 μg/ml), FITC-Gr1 (clone RB6-8C5, eBioscience #11-5931, 3 μg/ml), eF780-CD3 (clone 145-2C11, eBioscience #47-0031, 5 μg/ml), PE-Dazzle-CD4 (clone RM4-5, Biolegend #100565, 0.4 μg/ml), and BV605-CD8 (clone 53-6.7, Biolegend #100743, 1.75 μg/ml). Multicolor FACS Analysis was performed on a BD Canto RUO 11 Color Analyzer. All data analysis was performed using the flow cytometry analysis program FloJo (Treestar)."}, "[2]": {"system": "CL66-Luc breast tumors", "test": "Orthotopic CL66-Luc breast tumor model", "format": "in vivo, Balb/cJ mice", "description": "Tumor Studies—Subcutaneous tumor studies: 5×10^5 LLC or B16 cells were injected subcutaneously into syngeneic (C57BL/6) 6- to 8-week old WT or Itgam^−/− mice (n=18). Tumors were excised at 7, 14 or 21 days, cryopreserved in OCT, lysed for RNA purification or collagenase-digested for flow cytometric analysis of CD11b+, F4/80+ and Gr1+ expression. Tumor volumes were calculated using the equation (l^2×w)/2. CL66-luc cells (0.5×10^6 cells) were suspended in 50 μL of basement membrane extract Matrigel (BD Pharmingen) in PBS (1:1) and inoculated orthotopically in the fourth mammary fat pad of female Balb/cJ mice. Tumor dimensions were measured every 2 days, and tumor volume was calculated using the equation: V (mm^3)=[…], where length is the longest diameter of the tumor and width is the shorter diameter.\nMice were divided into four cohorts: vehicle control treated, LA1 only treated, Taxol only treated, LA1 and Taxol treated. LA1 (2 mg/kg) was dissolved in 2% DMSO and 1% Tween-20 in saline and Taxol (2.5 mg/kg) was dissolved in a 1:1:6 ratio of Cremophor EL: Ethanol:Saline. LA1 was administered by intraperitoneal injection (i.p.) daily, while Taxol was administered every other day by i.p. injection until end-point. LA1+Taxol treated mice received LA1 i.p. in the morning followed by Taxol i.p. within 4 hours. Tumor burden was evaluated every other day by caliper measurements. Prior to tissue collection, mice were anesthetized by ketamine/xylazine and the lungs were perfused with PBS followed by 10% formalin and harvested for fixation. Mammary tumor tissue was harvested and divided for fixation (10% formalin or OCT), snap frozen, or made into single-cell suspensions and analyzed by flow cytometric analysis. For survival studies, Balb/c mice bearing CL66-derived tumors were treated for 6 weeks after the first treatment and monitored thereafter. End point was considered when the tumor reached […] in diameter (n=10-15).\nas §1\nAlternatively, immunostaining was performed on formalin fixed, paraffin-embedded tumor tissues. Deparaffinized tissue sections (5 μm) were either stained with hemotoxylin-eosin or were subjected to antigen retrieval by steam heating in an acidic pH solution (Citrate-based, Vector Laboratories) prior to immune staining for α-SMA (clone 1A4, Fisher Scientific), MMP9 (polyclonal rabbit, Abcam), S100A8 (goat polyclonal (M-19), Santa Cruz), CD31 (clone RM0032-1D12, Abcam), or ARG1 (sc-18351, Santa Cruz) at 4° C. overnight. […]"}}}
{"compound": "O=C(O)c1ccc(-c2ccc(/C=C3\\SC(=S)N(Cc4ccccc4)C3=O)o2)cc1", "note": "[LA1, leukadherin 1]", "values": [{"measurement": "LLC lung tumor growth in Itgam-/- mice", "setting": "[1]; LA1 6 mg/kg i.p. daily, Itgam-/- mice", "result": "not in Itgam−/− mice"}, {"measurement": "LLC lung tumor growth in WT mice", "setting": "[1]; LA1 6 mg/kg i.p. daily, WT mice", "result": "inhibited murine LLC lung tumor growth in WT"}, {"measurement": "CD8+ T cells in tumors", "setting": "[1]; LLC tumors", "result": "increased the presence of CD8+ T cells"}, {"measurement": "MHCII+ macrophages in tumors", "setting": "[1]; LLC tumors", "result": "increased the presence of MHCII+ macrophages"}, {"measurement": "expression of S100A8 and MMP9 in CD11b+ cells", "setting": "[1]; LLC tumors", "result": "inhibited expression of S100A8 and MMP9 in CD11b+ cells in LLC tumors"}, {"measurement": "numbers of SMA+ blood vessels in tumors", "setting": "[1]; tumors of FIGS. 5G, 5I and 5J (CL66, MDA-MB-231, LLC)", "result": "decreasing the numbers of SMA+blood vessels"}, {"measurement": "CD8+ T cells in tumors", "setting": "[2]; CL66-Luc tumors", "result": "increased the presence of CD8+ T cells"}, {"measurement": "MHCII+ macrophages in tumors", "setting": "[2]; CL66-Luc tumors", "result": "increased the presence of MHCII+ macrophages"}, {"measurement": "expression of Arginase1, S100A8 and MMP9 in tumors", "setting": "[2]; CL66-Luc tumors", "result": "inhibited expression of Arginase1, S100A8 and MMP9 in CL66-Luc tumors"}, {"measurement": "MHCII, CD206, Arg1, MMP9 and S100A8 expression in TAMs", "setting": "[2]; CL66 Luc model", "result": "stimulating MHCII expression and reducing CD206, Arg1, MMP9 and S100A8 expression in TAMs"}, {"measurement": "CL66-Luc tumor growth, combination with irradiation", "setting": "[2]; LA1 2 mg/kg + IR 20 Gy", "result": "synergized with irradiation to suppress CL66-Luc breast tumor growth"}, {"measurement": "CL66-Luc tumor growth", "setting": "[2]; LA1 2 mg/kg i.p. daily, compared with taxol", "result": "potently reduced tumor growth in syngeneic, orthotopically implanted CL66-Luc breast tumors more effectively than taxol"}, {"measurement": "survival", "setting": "[2]; mouse models of cancer", "result": "prolong survival in mouse models of cancer"}, {"measurement": "CL66 Luc tumor growth relative to control tumors", "setting": "[2]; syngeneic, immune competent mice", "result": 25, "unit": "%"}]}
